Assay results taken from patent publication US8278072B1, “Method for synthesis of sialylated products using reversible sialylation” (Health Research, Inc., priority 2007, dated 2012).

Target: T1, ST3Gal-II (Rattus norvegicus, UniProt Q11205)
T1 construct: purchased Calbiochem
T1 sequence (Q11205 1-350): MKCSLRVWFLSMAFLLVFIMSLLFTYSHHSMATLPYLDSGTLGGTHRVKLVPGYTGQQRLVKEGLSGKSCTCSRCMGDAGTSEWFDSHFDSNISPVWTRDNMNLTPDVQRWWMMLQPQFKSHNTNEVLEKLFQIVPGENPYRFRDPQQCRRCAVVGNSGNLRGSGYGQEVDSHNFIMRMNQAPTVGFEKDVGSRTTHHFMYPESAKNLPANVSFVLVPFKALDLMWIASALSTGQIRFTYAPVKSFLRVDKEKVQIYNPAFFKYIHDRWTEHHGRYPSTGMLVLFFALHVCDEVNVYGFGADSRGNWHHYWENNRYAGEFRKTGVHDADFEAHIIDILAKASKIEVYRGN
Experiment: Reverse sialylation: transfer of [9-3H]NeuAc from sialylated donor to nucleotide phosphates (WGA-agarose)
Assay type: biochemical
Conditions: donor [1]; for Incorporation of [9-3H]NeuAc expressed as percent of the CPM incorporated into 5′-CMP: nucleotide phosphate 1 mM as acceptor
Method: FIG. 1. Nucleotide phosphates as acceptors of radioactivity from [9-^3H]NeuAcα2,3Galβ,13 (GlcNAcβ1,6)GalNAcα-O—Al (Al=Allyl) [[9-^3H] [1]] in the presence of ST3Gal-II (scheme-I). Reaction mixtures (RM) with the following composition were incubated at 37° C. for 21 hours in 100 mM NaCa Codylate buffer, pH6.0: i) RM containing 150 μM (0.4 μCi) [[9-^3H] [1]] (donor) along with 0.8 mU ST3Gal-II but no 5″-CMP; and, ii) RM containing [[9-^3H] [1]] and 1.0 mM 5′-CMP, along with ST3Gal-II. Products formed were fractionated on a WGA-agarose column. […] The feasibility of the reverse reaction is well established in literature. Schematic symbols: ♦:sialic acid, ●:Gal, □:GalNAc, ▪:GlcNAc.
All enzymatic sialylation reactions were typically carried out in 100 mM NaCa Codylate buffer pH6.0 in the presence of enzyme, synthetic acceptor (at 7.5 mM or as indicated in each experiment) and 0.2 μCi CMP-[9-^3H]NeuAc (NEN-Dupont, 29 mCi/μmol). The concentration of total CMP-NeuAc was adjusted in individual reactions by supplementing with additional cold CMP-NeuAc. Reaction volume was 20 μl. Products formed were separated using four different chromatography procedures (below). In all cases, the radioactive content of isolated products was determined by using 3a70 scintillation cocktail (Research Products International, Mount Prospect, Ill.), and a Beckman LS6500 scintillation counter.
a) Biogel P2 chromatography: A Biogel P2 column (Fine Mesh; 1.0×116.0 cm) was used with 0.1 M pyridine acetate (pH5.4) as the eluent at room temperature. […] Fractions of 1.0 ml were collected. The bound material was then eluted with 0.5M GlcNAc or 0.2M Gal in the same buffer. […] Calculation of equilibrium constant, Keq: Equilibrium constant was calculated for selected reversible bimolecular reactions that are denoted by:
Cloned and purified rat sialyltransferase α2,3(O)ST (ST3Gal-II) is used in many experiments presented in this manuscript. […] In order to determine if the sialylation reaction is reversible (FIG. 1), [9-^3H]NeuAcα2,3Galβ,13(GlcNAcβ1,6)GalNAcα-O—Al (Al=Allyl) [9-^3H[1]] was prepared using ST3Gal-II in the presence of CMP-[9-^3H]NeuAc and the trisaccharide acceptor Galβ1,3(GlcNAcβ1,6)GalNAcα-O—Al, and the radiolabeled product was isolated using Biogel P2 chromatography. […] Two different reaction mixtures were then prepared with: i) [9-^3H[1]] and ST3Gal-II but without 5″-CMP; and ii) [9-^3H[1]] and 5″-CMP along with ST3Gal-II.

## Nc1ccn([C@@H]2O[C@H](COP(=O)(O)O)[C@@H](O)[C@H]2O)c(=O)n1 [5′-CMP, Cytidine 5′-monophosphate]
1 mM nucleotide phosphate
  Incorporation of [9-3H]NeuAc: (44197 CPM)
  Incorporation of [9-3H]NeuAc expressed as percent of the CPM incorporated into 5′-CMP: 100.0%

## Nc1ccn([C@@H]2O[C@H](COP(=O)(O)OP(=O)(O)O)[C@@H](O)[C@H]2O)c(=O)n1 [5′-CDP]
  Incorporation of [9-3H]NeuAc expressed as percent of the CPM incorporated into 5′-CMP: 28.4%
